Measured values taken from the supplement of paper PMC10307832.

Experiments:
Assay in all cases: relative viability (nuclei count vs DMSO), 5 days (fraction); higher = more cells survive
[1] = compound: CCn1c(-c2nonc2N)nc2cnc(Oc3cccc(NC(=O)c4ccc(OCCN5CCOCC5)cc4)c3)cc21 + O=C(CCCCCCC(=O)Nc1ccccc1)NO [Vorinostat] (partner 1 µM)
Outline: (§1)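 A single step with final 0.05% Triton X-100, 1% formaldehyde and 1 ug/ml Hoechst fixed the cells and stained nuclei 5 days after treatment. Lung cancer cell lines in 1536-well plates had been treated by pin tool the day after seeding with one drug alone or a fixed anchor-drug dose plus five library-drug doses (not always all listed) in √10 steps, and nuclei were counted on 4× images. Relative viability is the ratio of nuclei in treated wells to nuclei in vehicle wells, taken as the median of duplicate plates.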

[2] = compound: CCn1c(-c2nonc2N)nc2cnc(Oc3cccc(NC(=O)c4ccc(OCCN5CCOCC5)cc4)c3)cc21 + C[C@]1(O)C[C@@H](c2nc(-c3ccc4ccc(-c5ccccc5)nc4c3)c3c(N)nccn32)C1 [Linsitinib] (partner 1 µM)
Outline: as §1

[3] = compound: CCn1c(-c2nonc2N)nc2cnc(Oc3cccc(NC(=O)c4ccc(OCCN5CCOCC5)cc4)c3)cc21 + CC(=O)c1c(C)c2cnc(Nc3ccc(N4CCNCC4)cn3)nc2n(C2CCCC2)c1=O [Palbociclib] (partner 0.5 µM)
Outline: as §1

[4] = compound: N=C1NC(=O)/C(=C/c2ccc(O)cc2)S1 [Mirin] + C[C@]1(O)C[C@@H](c2nc(-c3ccc4ccc(-c5ccccc5)nc4c3)c3c(N)nccn32)C1 [Linsitinib] (partner 1 µM)
Outline: as §1

Cell Line	relative viability ([1]; first compound 0.04 µM)	relative viability ([1]; first compound 0.1265 µM)	relative viability ([1]; first compound 0.4 µM)	relative viability ([1]; first compound 1.265 µM)	relative viability ([1]; first compound 4 µM)	relative viability ([2]; first compound 0.04 µM)	relative viability ([2]; first compound 0.1265 µM)	relative viability ([2]; first compound 1.265 µM)	relative viability ([2]; first compound 4 µM)	relative viability ([3]; first compound 0.04 µM)	relative viability ([3]; first compound 0.1265 µM)	relative viability ([3]; first compound 0.4 µM)	relative viability ([3]; first compound 1.265 µM)	relative viability ([3]; first compound 4 µM)	relative viability ([4]; first compound 0.25 µM)	relative viability ([4]; first compound 2.5 µM)	relative viability ([4]; first compound 7.906 µM)	relative viability ([4]; first compound 25 µM)	relative viability ([2]; first compound 0.4 µM)	relative viability ([4]; first compound 0.7906 µM)
NCI-H1944	0.662	0.572	0.463	0.481	0.261	1.31	1.18	1.14	1.16	0.269	0.377	0.342	0.329	0.38	1.11	1.25	1.05	0.752	–	–
LK-2	0.522	0.37	0.168	0.178	0.156	0.522	0.691	0.342	0.74	0.627	0.787	0.541	0.568	0.673	0.321	0.516	0.282	0.174	0.572	0.317
HCC-15	0.938	0.785	0.81	0.767	0.718	1.15	0.88	0.825	0.883	0.758	0.665	0.673	0.596	0.7	0.791	0.897	0.779	0.534	0.901	0.849
NCI-H838	0.459	0.372	0.337	0.329	0.205	0.863	0.49	0.392	0.289	0.19	0.175	0.147	0.157	0.179	1.01	1.12	1.1	0.761	0.439	1.14
HOP-62	0.936	0.769	0.521	0.382	0.394	1.22	1.27	0.595	1.02	0.45	0.371	0.424	0.279	0.365	1.09	0.937	–	0.866	0.808	0.856
NCI-H322M	1.26	1.31	0.856	0.554	0.675	1.03	0.845	0.939	0.808	0.543	0.51	0.487	0.451	0.486	0.891	0.976	1.04	0.651	0.912	1.08
NCI-H1395	0.753	0.604	0.658	0.441	0.44	1.25	0.931	0.502	0.616	0.562	0.558	0.565	0.457	0.482	1.13	1.07	1.05	0.901	1.04	–
NCI-H650	0.503	0.28	0.24	0.192	0.224	1.01	0.667	0.304	0.426	0.349	0.297	0.255	0.201	0.184	0.942	0.941	–	0.956	0.521	–
NCI-H661	0.891	0.906	0.888	0.627	0.517	0.652	0.612	0.471	0.45	0.363	0.395	0.366	0.365	0.303	0.432	0.613	0.451	0.414	0.518	0.58
